Test systems include CAKI-1 renal; HS 578T breast; K-562 leukemia; KM12 colon; NCI-H226 lung; OVCAR-5 ovarian; OVCAR-8 ovarian; SK-MEL-2 melanoma; SK-MEL-28 melanoma; T-47D breast.
What all share (experiment): inhibition of tumour cell growth, NCI panel, 48 h

Where “and” joins values, the source holds several entries; their conditions need not be identical. Equal entries are not always repeated.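 Exposure lasted 48 hours, with cells grown in 96-well plates and compounds tested at five concentrations. Abbreviation: GI50, concentration required for 50% inhibition of growth. TGI: total growth inhibition.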

Take `COc1cccc(/C=C2\COc3ccc(O)c(O)c3C2=O)c1OC`: the GI50 in the assay with CAKI-1 renal is 1.71 µM; with HS 578T breast, 3.99 µM; with K-562 leukemia it was 1.47 µM; with KM12 colon, 1.67 µM; with NCI-H226 lung it was 10.7 µM; with OVCAR-5 ovarian, 3.51 µM. Further, the GI50 is 2.76 µM in the assay on OVCAR-8 ovarian, 2.35 µM with SK-MEL-2 melanoma, 3.53 µM in the assay with SK-MEL-28 melanoma and 1.66 µM in the assay with T-47D breast. Also, the TGI with CAKI-1 renal is 4.69 µM; in the assay on HS 578T breast, 31.5 µM; with K-562 leukemia, above 100 µM; in the assay on KM12 colon, 3.92 µM; in the assay on NCI-H226 lung, 51.2 µM; with OVCAR-5 ovarian it was 13.6 µM. Further, the TGI was 20.9 µM in the assay on OVCAR-8 ovarian, 6.34 µM with SK-MEL-2 melanoma, 12.9 µM with SK-MEL-28 melanoma and 22.1 µM in the assay with T-47D breast.
Take `O=C(Nc1ccc(Br)cc1)c1cc(Br)ccc1O`: the GI50 was 0.333 µM and 1.21 µM in the assay on CAKI-1 renal; 0.302 µM and 0.455 µM in the assay with HS 578T breast; 0.437 µM and 0.419 µM in the assay on K-562 leukemia; 1.67 µM and 2 µM in the assay on KM12 colon; 0.747 µM and 0.729 µM with NCI-H226 lung; 1.75 µM and 4.79 µM with OVCAR-5 ovarian. Moreover, the GI50 with OVCAR-8 ovarian is 0.554 µM and 2.65 µM; in the assay with SK-MEL-2 melanoma, 0.278 µM and 1.74 µM; in the assay with SK-MEL-28 melanoma, 0.314 µM and 1.44 µM; in the assay on T-47D breast, 0.337 µM and 0.604 µM. Besides, the TGI is 2.49 µM and 5.62 µM in the assay with CAKI-1 renal; 2.94 µM with HS 578T breast; 4.99 µM and 5.31 µM with KM12 colon; 4.52 µM and 4.03 µM in the assay with NCI-H226 lung; above 92.4 µM with OVCAR-5 ovarian; above 82.8 µM in the assay on OVCAR-8 ovarian. For the same molecule, the TGI with SK-MEL-2 melanoma is 1.25 µM and 5 µM; in the assay on SK-MEL-28 melanoma, 2.17 µM and 5.14 µM; in the assay on T-47D breast, 5.02 µM and 7.42 µM.
`O=C1/C(=C/c2ccccc2)CN(C(=O)/C=C/c2ccccc2)C/C1=C\c1ccccc1`: the TGI in the assay with CAKI-1 renal was 99.4 µM; with HS 578T breast, above 100 µM; in the assay with K-562 leukemia, above 43.3 µM; with KM12 colon, 12.2 µM; in the assay on NCI-H226 lung it was 60.6 µM; in the assay on OVCAR-5 ovarian it was 45.2 µM. Further, the TGI stood at 9.78 µM with OVCAR-8 ovarian, 52 µM in the assay with SK-MEL-2 melanoma, 21.4 µM in the assay on SK-MEL-28 melanoma and 15.1 µM in the assay with T-47D breast.
With `Nc1ncnc2occ(-c3ccc(NC(=O)Nc4cccc(C(F)(F)F)c4)cc3)c12`, the GI50 in the assay with CAKI-1 renal is 2.29 µM; with HS 578T breast, 0.973 µM; in the assay on K-562 leukemia it was 1.3 µM; in the assay on KM12 colon, 0.123 µM; in the assay on NCI-H226 lung it was 0.367 µM; in the assay with OVCAR-5 ovarian it was 5.5 µM. The GI50 in the assay on OVCAR-8 ovarian is 2.85 µM; with SK-MEL-2 melanoma, 5.39 µM; in the assay on SK-MEL-28 melanoma, 4.89 µM; in the assay on T-47D breast it was 5.22 µM. The TGI amounted to 13 µM in the assay with CAKI-1 renal; 6.74 µM in the assay on HS 578T breast; 25 µM in the assay with K-562 leukemia; 4.51 µM in the assay with KM12 colon; 6.1 µM with NCI-H226 lung; 13.3 µM in the assay with OVCAR-5 ovarian. Further, the TGI is 8.26 µM with OVCAR-8 ovarian, 11.6 µM in the assay on SK-MEL-2 melanoma, 12.7 µM in the assay on SK-MEL-28 melanoma and 15 µM in the assay with T-47D breast.
As to `O=C(NCCc1nccs1)c1cnc2c(S)cccc2c1`, the GI50 was 3.22 µM with CAKI-1 renal; 6.28 µM in the assay with HS 578T breast; 0.98 µM with K-562 leukemia; 2.88 µM in the assay on KM12 colon; 5.7 µM in the assay with NCI-H226 lung; 10 µM in the assay on OVCAR-5 ovarian. The GI50 in the assay on OVCAR-8 ovarian is 4.95 µM; with SK-MEL-2 melanoma, 3.57 µM; with SK-MEL-28 melanoma it was 3.5 µM; with T-47D breast, 2.37 µM. For the same molecule, the TGI with CAKI-1 renal is 37.4 µM; in the assay on HS 578T breast, 80.5 µM; in the assay with K-562 leukemia it was above 100 µM; in the assay on KM12 colon, 17.8 µM; in the assay with NCI-H226 lung, 21.4 µM; with OVCAR-5 ovarian, 41.6 µM. Besides, the TGI in the assay on OVCAR-8 ovarian was 57.4 µM; with SK-MEL-2 melanoma, 26.5 µM; in the assay on SK-MEL-28 melanoma, above 100 µM; in the assay on T-47D breast, 62.6 µM.
As to `CC1=C(C(=O)Nc2cc(F)c(F)cc2F)C(c2ccc(N(C)C)cc2)C(C(=O)Nc2cc(F)c(F)cc2F)=C(C)N1`, the TGI was above 67.7 µM in the assay on CAKI-1 renal; above 100 µM with HS 578T breast; above 100 µM in the assay on K-562 leukemia; above 75.5 µM in the assay on KM12 colon; above 92.9 µM in the assay with NCI-H226 lung; above 100 µM in the assay with OVCAR-5 ovarian. In addition, the TGI with OVCAR-8 ovarian is above 100 µM; in the assay on SK-MEL-2 melanoma, above 100 µM; with SK-MEL-28 melanoma, above 100 µM; in the assay with T-47D breast, 59.2 µM. For the same molecule, the GI50 in the assay with HS 578T breast is 28.2 µM; in the assay with T-47D breast, 3.64 µM.
For `CC(=O)OC1C(C)OC(Oc2c(-c3ccc(O)cc3)oc3cc(O)cc(O)c3c2=O)C(O)C1OC(C)=O` (stereo unspecified), the GI50 with CAKI-1 renal is 41.4 µM; with HS 578T breast it was 24.9 µM; with K-562 leukemia, 30.8 µM; with KM12 colon, 29.4 µM; with NCI-H226 lung, 36.9 µM; in the assay on OVCAR-5 ovarian, above 100 µM. For the same molecule, the GI50 was 29 µM in the assay with OVCAR-8 ovarian, 21.1 µM in the assay with SK-MEL-2 melanoma, 29 µM with SK-MEL-28 melanoma and 23.4 µM in the assay with T-47D breast. Besides, the TGI with CAKI-1 renal is above 100 µM; in the assay on HS 578T breast, 82.4 µM; in the assay with K-562 leukemia, above 100 µM; in the assay with KM12 colon, above 83.8 µM; in the assay on NCI-H226 lung, above 100 µM; in the assay with OVCAR-5 ovarian, above 100 µM. Moreover, the TGI was above 84.9 µM in the assay on OVCAR-8 ovarian, 49.3 µM in the assay with SK-MEL-2 melanoma, above 100 µM in the assay on SK-MEL-28 melanoma and 68.6 µM in the assay with T-47D breast.
`COc1cccc(C2=C(c3cn(C)c4c(C)cccc34)C(=O)NC2=O)c1`: the GI50 was above 14.1 µM in the assay with CAKI-1 renal; 5.93 µM in the assay with HS 578T breast; 12.8 µM in the assay on K-562 leukemia; above 21 µM in the assay on KM12 colon; 19.4 µM in the assay with NCI-H226 lung; above 25 µM with OVCAR-5 ovarian. The GI50 was above 25 µM in the assay with OVCAR-8 ovarian, above 16.9 µM in the assay on SK-MEL-2 melanoma, above 25 µM with SK-MEL-28 melanoma and above 20.2 µM in the assay on T-47D breast. Further, the TGI in the assay with CAKI-1 renal, in the assay on HS 578T breast, in the assay with K-562 leukemia, in the assay on KM12 colon, with NCI-H226 lung and with OVCAR-5 ovarian was above 25 µM throughout. The TGI with OVCAR-8 ovarian, in the assay on SK-MEL-2 melanoma, in the assay on SK-MEL-28 melanoma and in the assay with T-47D breast was above 25 µM throughout.

Values taken from PubChem BioAssay (NCI).
